# Values of other authors, collected in patent publication US20250228877A1, “MANAGEMENT OF SKIN AILMENTS” (priority 2021, published 2025).
# Tests used:
# [1] = 1-4% IP-6 in drinking water; measured by gadolinium uptake
# [2] = test system: human umbilical vein endothelial cell (HUVEC) tube formation; conditions: after 24 hours; reconstituted extracellular matrix
# [3] = 7 days following treatment
smiles,measurement,setting,value
"O=P(O)(O)O[C@H]1[C@H](OP(=O)(O)O)[C@@H](OP(=O)(O)O)[C@H](OP(=O)(O)O)[C@@H](OP(=O)(O)O)[C@H]1OP(=O)(O)O [IP-6, myo-inositol hexakisphosphate]",angiogenesis evaluated by micro-vessel density (MVD),[1],inhibited angiogenesis
same,number of capillaries,[2],reduction
same,vascularity (number of blood vessel formation),[3],inhibited vascularity
